The values below are quoted from earlier work in paper PMC5736936, “Xylopine Induces Oxidative Stress and Causes G2/M Phase Arrest, Triggering Caspase-Mediated Apoptosis by p53-Independent Pathway in HCT116 Cells” (Oxidative Medicine and Cellular Longevity, 2017).

The subject of this data set is human hepatocellular carcinoma HepG2 cells. On the set-up: method as in PMID 27399666. The following applies: cited from earlier work.

Consider `COc1ccc2c(c1)C[C@@H]1NCCc3cc4c(c-2c31)OCO4` [XYL, xylopine], for which the “cell cycle arrest and apoptosis” value is “causes G2/M cell cycle arrest and apoptosis”.
